{"source": "the supplement of paper PMC10307832"}
{"compound": "N#CC1(c2ccc(NC(=O)c3cccnc3NCc3ccncc3)cc2)CCCC1 [Apatinib] + CC(C)C[C@H](NC(=O)[C@H](Cc1ccccc1)NC(=O)c1cnccn1)B(O)O [Bortezomib] (partner 0.002 µM)", "assay": "relative viability (nuclei count vs DMSO), 5 days (fraction); higher = more cells survive", "details": "first compound 0.08 µM", "in_short": "(§1)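 Medians of duplicate plates are given as relative viability. That measure is the nuclei count in treated wells divided by the count in vehicle wells. Counts were taken on 4× images of lung cancer cell lines in 1536-well plates, 5 days after pin-tool dosing the day after seeding with one drug alone or a fixed anchor-drug dose plus five library-drug doses (not always all listed) in √10 steps.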"}
{"cell line": "201T", "relative viability": 1.07}
{"cell line": "A-427", "relative viability": 1.08}
{"cell line": "BEN", "relative viability": 0.688}
{"cell line": "CAL-12T", "relative viability": 1.11}
{"cell line": "COR-L23", "relative viability": 1.07}
{"cell line": "COR-L 105", "relative viability": 1.12}
{"cell line": "Calu-6", "relative viability": 0.969}
{"cell line": "EBC-1", "relative viability": 0.577}
{"cell line": "EKVX", "relative viability": 0.941}
{"cell line": "EMC-BAC-2", "relative viability": 1.08}
{"cell line": "EPLC-272H", "relative viability": 1.04}
{"cell line": "H3255", "relative viability": 0.729}
{"cell line": "HARA", "relative viability": 1.14}
{"cell line": "HCC-15", "relative viability": 1.09}
{"cell line": "HCC-44", "relative viability": 1.01}
{"cell line": "IA-LM", "relative viability": 0.952}
{"cell line": "NCI-H727", "relative viability": 0.684}
{"cell line": "NCI-H1299", "relative viability": 1.06}
{"cell line": "NCI-H1563", "relative viability": 0.762}
{"cell line": "NCI-H1703", "relative viability": 0.325}
{"cell line": "NCI-H1792", "relative viability": 0.917}
{"compound": "N#CC1(c2ccc(NC(=O)c3cccnc3NCc3ccncc3)cc2)CCCC1 [Apatinib] + CC(C)C[C@H](NC(=O)[C@H](Cc1ccccc1)NC(=O)c1cnccn1)B(O)O [Bortezomib] (partner 0.002 µM)", "assay": "relative viability (nuclei count vs DMSO), 5 days (fraction); higher = more cells survive", "details": "first compound 0.253 µM", "in_short": "as §1"}
{"cell line": "201T", "relative viability": 1.07}
{"cell line": "A-427", "relative viability": 0.955}
{"cell line": "ABC-1", "relative viability": 0.333}
{"cell line": "BEN", "relative viability": 0.868}
{"cell line": "CAL-12T", "relative viability": 0.908}
{"cell line": "COR-L23", "relative viability": 1.03}
{"cell line": "COR-L 105", "relative viability": 0.897}
{"cell line": "Calu-6", "relative viability": 1.12}
{"cell line": "ChaGo-K-1", "relative viability": 1.19}
{"cell line": "EBC-1", "relative viability": 0.782}
{"cell line": "EKVX", "relative viability": 1.21}
{"cell line": "EMC-BAC-2", "relative viability": 0.987}
{"cell line": "EPLC-272H", "relative viability": 0.905}
{"cell line": "H3255", "relative viability": 0.791}
{"cell line": "HARA", "relative viability": 1.07}
{"cell line": "HCC-15", "relative viability": 1.03}
{"cell line": "HCC-44", "relative viability": 0.951}
{"cell line": "IA-LM", "relative viability": 0.976}
{"cell line": "NCI-H727", "relative viability": 0.706}
{"cell line": "NCI-H1299", "relative viability": 1.02}
{"cell line": "NCI-H1563", "relative viability": 0.963}
{"cell line": "NCI-H1703", "relative viability": 0.297}
{"cell line": "NCI-H1792", "relative viability": 1.05}
{"compound": "N#CC1(c2ccc(NC(=O)c3cccnc3NCc3ccncc3)cc2)CCCC1 [Apatinib] + CC(C)C[C@H](NC(=O)[C@H](Cc1ccccc1)NC(=O)c1cnccn1)B(O)O [Bortezomib] (partner 0.002 µM)", "assay": "relative viability (nuclei count vs DMSO), 5 days (fraction); higher = more cells survive", "details": "first compound 0.8 µM", "in_short": "as §1"}
{"cell line": "201T", "relative viability": 1.1}
{"cell line": "A-427", "relative viability": 1.01}
{"cell line": "ABC-1", "relative viability": 0.311}
{"cell line": "BEN", "relative viability": 0.876}
{"cell line": "CAL-12T", "relative viability": 1.06}
{"cell line": "COR-L23", "relative viability": 0.971}
{"cell line": "COR-L 105", "relative viability": 0.901}
{"cell line": "Calu-6", "relative viability": 0.96}
{"cell line": "ChaGo-K-1", "relative viability": 0.847}
{"cell line": "EBC-1", "relative viability": 0.605}
{"cell line": "EKVX", "relative viability": 0.967}
{"cell line": "EMC-BAC-2", "relative viability": 1.07}
{"cell line": "EPLC-272H", "relative viability": 0.806}
{"cell line": "H3255", "relative viability": 0.657}
{"cell line": "HARA", "relative viability": 1.14}
{"cell line": "HCC-15", "relative viability": 0.972}
{"cell line": "HCC-44", "relative viability": 0.894}
{"cell line": "IA-LM", "relative viability": 0.839}
{"cell line": "NCI-H727", "relative viability": 0.62}
{"cell line": "NCI-H1299", "relative viability": 0.987}
{"cell line": "NCI-H1563", "relative viability": 0.811}
{"cell line": "NCI-H1703", "relative viability": 0.257}
{"cell line": "NCI-H1792", "relative viability": 0.957}
{"compound": "N#CC1(c2ccc(NC(=O)c3cccnc3NCc3ccncc3)cc2)CCCC1 [Apatinib] + CC(C)C[C@H](NC(=O)[C@H](Cc1ccccc1)NC(=O)c1cnccn1)B(O)O [Bortezomib] (partner 0.002 µM)", "assay": "relative viability (nuclei count vs DMSO), 5 days (fraction); higher = more cells survive", "details": "first compound 2.53 µM", "in_short": "as §1"}
{"cell line": "201T", "relative viability": 1.11}
{"cell line": "A-427", "relative viability": 0.886}
{"cell line": "ABC-1", "relative viability": 0.335}
{"cell line": "BEN", "relative viability": 0.458}
{"cell line": "CAL-12T", "relative viability": 0.819}
{"cell line": "COR-L23", "relative viability": 0.793}
{"cell line": "COR-L 105", "relative viability": 0.605}
{"cell line": "Calu-6", "relative viability": 0.789}
{"cell line": "ChaGo-K-1", "relative viability": 0.857}
{"cell line": "EBC-1", "relative viability": 0.395}
{"cell line": "EKVX", "relative viability": 0.98}
{"cell line": "EMC-BAC-2", "relative viability": 0.843}
{"cell line": "EPLC-272H", "relative viability": 0.738}
{"cell line": "H3255", "relative viability": 0.612}
{"cell line": "HARA", "relative viability": 0.992}
{"cell line": "HCC-15", "relative viability": 0.88}
{"cell line": "HCC-44", "relative viability": 0.753}
{"cell line": "IA-LM", "relative viability": 0.536}
{"cell line": "NCI-H727", "relative viability": 0.599}
{"cell line": "NCI-H1299", "relative viability": 1.03}
{"cell line": "NCI-H1563", "relative viability": 0.737}
{"cell line": "NCI-H1703", "relative viability": 0.175}
{"cell line": "NCI-H1792", "relative viability": 0.906}
{"compound": "N#CC1(c2ccc(NC(=O)c3cccnc3NCc3ccncc3)cc2)CCCC1 [Apatinib] + CC(C)C[C@H](NC(=O)[C@H](Cc1ccccc1)NC(=O)c1cnccn1)B(O)O [Bortezomib] (partner 0.002 µM)", "assay": "relative viability (nuclei count vs DMSO), 5 days (fraction); higher = more cells survive", "details": "first compound 8 µM", "in_short": "as §1"}
{"cell line": "201T", "relative viability": 1.08}
{"cell line": "A-427", "relative viability": 0.945}
{"cell line": "ABC-1", "relative viability": 0.316}
{"cell line": "BEN", "relative viability": 0.871}
{"cell line": "CAL-12T", "relative viability": 1.09}
{"cell line": "COR-L23", "relative viability": 0.898}
{"cell line": "COR-L 105", "relative viability": 0.658}
{"cell line": "Calu-6", "relative viability": 0.814}
{"cell line": "ChaGo-K-1", "relative viability": 1.03}
{"cell line": "EBC-1", "relative viability": 0.359}
{"cell line": "EKVX", "relative viability": 1.01}
{"cell line": "EMC-BAC-2", "relative viability": 0.918}
{"cell line": "EPLC-272H", "relative viability": 0.666}
{"cell line": "H3255", "relative viability": 0.723}
{"cell line": "HARA", "relative viability": 1.18}
{"cell line": "HCC-15", "relative viability": 0.992}
{"cell line": "HCC-44", "relative viability": 0.856}
{"cell line": "IA-LM", "relative viability": 0.183}
{"cell line": "NCI-H727", "relative viability": 0.716}
{"cell line": "NCI-H1299", "relative viability": 0.908}
{"cell line": "NCI-H1563", "relative viability": 0.762}
{"cell line": "NCI-H1703", "relative viability": 0.154}
{"cell line": "NCI-H1792", "relative viability": 0.968}
{"compound": "N#CC1(c2ccc(NC(=O)c3cccnc3NCc3ccncc3)cc2)CCCC1 [Apatinib] + O=C(CCCCCCC(=O)Nc1ccccc1)NO [Vorinostat] (partner 1 µM)", "assay": "relative viability (nuclei count vs DMSO), 5 days (fraction); higher = more cells survive", "details": "first compound 0.08 µM", "in_short": "as §1"}
{"cell line": "201T", "relative viability": 0.724}
{"cell line": "A-427", "relative viability": 0.861}
{"cell line": "BEN", "relative viability": 0.584}
{"cell line": "CAL-12T", "relative viability": 0.941}
{"cell line": "COR-L23", "relative viability": 0.516}
{"cell line": "COR-L 105", "relative viability": 1.09}
{"cell line": "ChaGo-K-1", "relative viability": 0.838}
{"cell line": "EKVX", "relative viability": 0.816}
{"cell line": "EPLC-272H", "relative viability": 0.532}
{"cell line": "H3255", "relative viability": 0.768}
{"cell line": "HARA", "relative viability": 0.599}
{"cell line": "HCC-15", "relative viability": 0.9}
{"cell line": "HCC-44", "relative viability": 1.07}
{"cell line": "IA-LM", "relative viability": 0.975}
{"cell line": "LK-2", "relative viability": 0.267}
{"cell line": "NCI-H358", "relative viability": 0.762}
